From US20110245242A1, “Heterocyclically Substituted Anilinopyrimides” (Bayer CropScience AG, priority 2008, published 2011)

Experiment: log P by LC-MS, method [b], acid range pH 2.7
Assay type: physicochemical
Conditions: pH 2.7
Procedure: The log P values were measured in accordance with EEC Directive 79/831 Annex V.A8 by HPLC (High Performance Liquid Chromatography) on reversed-phase columns (C 18) using the methods below:
[b] The LC-MS determination in the acid range was carried out at pH 2.7 using the mobile phases 0.1% aqueous formic acid and acetonitrile (contains 0.1% formic acid)
linear gradient from 10% acetonitrile to 95% acetonitrile.

| Compound | log p |
| --- | --- |
| Cc1ccc(Nc2ncc(Cl)c(NC3CC3)n2)cc1N1CCCC1=O [Example 305] | 1.44[b] |
| CC1CCN(c2cccc(Nc3ncc(Cl)c(N(C)C4CC4)n3)c2)C1=O (stereo not drawn) [Example 186] | 2.66[b] |
| CC(C)C1COC(=O)N1c1cccc(Nc2ncc(C(F)(F)F)c(NC3CC3)n2)c1 (stereo not drawn) [Example 249] | 3.04[b] |
| CC1CCC(=O)N1c1cccc(Nc2ncc(Cl)c(NC3CC3)n2)c1 (stereo not drawn) [Example 126] | 2.59[b] |
| COCC(C)Nc1nc(Nc2cccc(N3C(=O)OCC3C)c2)ncc1Cl (stereo not drawn) [Example 118] | 1.6[b] |
| C[C@@H]1CCN(c2cccc(Nc3ncc(Cl)c(NC4CC4)n3)c2)C1=O [Example 123] | 2.86[b] |
| CC1CCC(=O)N1c1cccc(Nc2ncc(Cl)c(NC3CC3)n2)c1 (stereo not drawn) [Example 30] | 1.6[b] |
| COCC(C)Nc1nc(Nc2ccc(N3CCCC3=O)cc2)ncc1Cl (stereo not drawn) [Example 1] | 1.51[b] |
| C[C@H]1CCN(c2cccc(Nc3ncc(Cl)c(NC4CC4)n3)c2)C1=O [Example 124] | 2.86[b] |
| CC1CCC(=O)N1c1cccc(Nc2ncc(Cl)c(NC3CC3)n2)c1 (stereo not drawn) [Example 125] | 2.59[b] |

Experiment: physchem
Assay type: physicochemical
Conditions: pH 7.8
Procedure: The log P values were measured in accordance with EEC Directive 79/831 Annex V.A8 by HPLC (High Performance Liquid Chromatography) on reversed-phase columns (C 18) using the methods below: [c] The LC-MS determination in the neutral range was carried out at pH 7.8 using the mobile phases 0.001 molar aqueous ammonium bicarbonate solution and acetonitrile linear gradient from 10% acetonitrile to 95% acetonitrile.

| Compound | log p |
| --- | --- |
| Cc1ccc(Nc2ncc(Cl)c(NC3CC3)n2)cc1N1CCCC1=O [Example 305] | 2.32[c]; |
| CC1CCN(c2cccc(Nc3ncc(Cl)c(N(C)C4CC4)n3)c2)C1=O (stereo not drawn) [Example 186] | 3.48[c]; |
| CC(C)C1COC(=O)N1c1cccc(Nc2ncc(C(F)(F)F)c(NC3CC3)n2)c1 (stereo not drawn) [Example 249] | 3.34[c]; |
| COc1ccc(Nc2ncc(Cl)c(NC3CC3)n2)cc1N1CCCC1=O [Example 328] | 2.18[c]; |
| CC1CC(Nc2nc(Nc3cccc(N4CCOC4=O)c3)ncc2Cl)C1 (stereo not drawn) [Example 256] | 2.99[c] |
| O=C1CCC(=O)N1Cc1cccc(Nc2ncc(Cl)c(NC3CC3)n2)c1 [Example 235] | 2.32[c]; |
| CCOC(=O)[C@@H]1CCC(=O)N1c1cccc(Nc2ncc(Br)c(NC3CC3)n2)c1 [Example 191] | 2.65[c] |
| CC(C)Nc1nc(Nc2cccc(N3C(=O)OCC3C)c2)ncc1Br (stereo not drawn) [Example 262] | 2.83[c]; |
| CC1COC(=O)N1c1cccc(Nc2ncc(C(F)(F)F)c(NC3CC3)n2)c1 (stereo not drawn) [Example 261] | 2.7[c]; |
| CSCC(C)(C)Nc1nc(Nc2ccc(N3CCOC3=O)cc2)ncc1Cl [Example 40] | 3.09[c] |

Experiment: log P by HPLC on reversed-phase columns (C 18), method [a], acidic range pH 2.3
Assay type: physicochemical
Conditions: pH 2.3
Procedure: The log P values were measured in accordance with EEC Directive 79/831 Annex V.A8 by HPLC (High Performance Liquid Chromatography) on reversed-phase columns (C 18) using the methods below: [a] The determination was carried out in the acidic range at pH 2.3 using the mobile phases 0.1% aqueous phosphoric acid and acetronitrile linear gradient from 10% acetonitrile to 95% acetronitrile.

| Compound | log p | log P (pH 2.3) |
| --- | --- | --- |
| CC1CCC(=O)N1c1cccc(Nc2ncc(Cl)c(NC3CC3)n2)c1 (stereo not drawn) [Example 126] | 2.59[a]; |  |
| O=C1CCCCCN1c1cccc(Nc2ncc(Cl)c(NC3CC3)n2)c1 [Example 55] | 1.7[a] |  |
| O=C1CCC(c2ccccc2)N1c1cccc(Nc2ncc(Cl)c(NC3CC3)n2)c1 (stereo not drawn) [Example 87] | 2.1[a] |  |
| CCC(C)Nc1nc(Nc2ccc(N3CCCC3=O)cc2)ncc1Cl (stereo not drawn) [Example 7] | 1.65[a] |  |
| COCC(C)Nc1nc(Nc2cccc(N3C(=O)OCC3C)c2)ncc1Cl (stereo not drawn) [Example 118] | 1.6[a]; |  |
| C[C@@H]1COC(=O)N1c1cccc(Nc2ncc(Cl)c(NC3CCC3)n2)c1 [Example 102] | 1.56[a] |  |
| O=C1CCCCCN1c1cccc(Nc2ncc(Br)c(NC3CC3)n2)c1 [Example 54] | 1.82[a] |  |
| FC(F)CNc1nc(Cl)ncc1Cl [Example V-4, 2,5-Dichloro-N-(2,2-difluoroethyl)pyrimidin-4-amine] |  | 1.96 |
| C[C@@H]1CCN(c2cccc(Nc3ncc(Cl)c(NC4CC4)n3)c2)C1=O [Example 123] | 2.86[a]; |  |
| CC(C)CC1COC(=O)N1c1cccc(Nc2ncc(Cl)c(NC3CC3)n2)c1 (stereo not drawn) [Example 47] | 2.54[a] |  |
| CC1CCC(=O)N1c1cccc(Nc2ncc(Cl)c(NC3CC3)n2)c1 (stereo not drawn) [Example 30] | 1.6[a]; |  |
| COCC(C)Nc1nc(Nc2ccc(N3CCCC3=O)cc2)ncc1Cl (stereo not drawn) [Example 1] | 1.51[a]; |  |
| O=C1CCCCN1c1cccc(Nc2ncc(F)c(NC3CCC3)n2)c1 [Example 58] | 1.29[a] |  |
| CNc1nc(Nc2cccc(N3CCCC3=O)c2)ncc1Cl [Example 38] | 1.05[a] |  |
| CC(C)CC1COC(=O)N1c1cccc(Nc2ncc(Br)c(NC3CC3)n2)c1 (stereo not drawn) [Example 48] | 2.69[a] |  |
| C[C@H]1CCN(c2cccc(Nc3ncc(Cl)c(NC4CC4)n3)c2)C1=O [Example 124] | 2.86[a]; |  |
| CCC1CC(C)C(=O)N1 (stereo not drawn) [5-Ethyl-3-methylpyrrolidin-2-one] |  | 0.96 |
| CC1CCC(=O)N1c1cccc(Nc2ncc(Cl)c(NC3CC3)n2)c1 (stereo not drawn) [Example 125] | 2.59[a]; |  |

Same assay, conditions: pH 2.3, log P (pH 2.3)

| Compound | chromatographic logP |
| --- | --- |
| Clc1ncc(Cl)c(N2CCOCC2)n1 [Example V-33, 4-(2,5-Dichloropyrimidin-4-yl)morpholine] | 1.99 |
| CC(Nc1nc(Cl)ncc1Cl)C(F)(F)F (stereo not drawn) [Example V-37, 2,5-Dichloro-N-(1,1,1-trifluoropropan-2-yl)pyrimidin-4-amine] | 2.66 |
| CC1CC1Nc1nc(Cl)ncc1Br (stereo not drawn) [Example V-41, 5-Bromo-2-chloro-N-(2-methylcyclopropyl)pyrimidin-4-amine] | 2.68 |
| CC1CCC(=O)N1c1cccc(N)c1 (stereo not drawn) [1-(3-Aminophenyl)-5-methylpyrrolidin-2-one] | 0.52 |
| Brc1ccc(Nc2ncc(Br)c(NC3CC3)n2)cc1 [VII-11, 5-Bromo-N^2-(4-bromophenyl)-N^4-cyclopropylpyrimidine-2,4-diamine] | 2.7 |
| FC(F)CNc1nc(Cl)ncc1Cl [Example V-2, 2,5-Dichloro-N-(2,2-difluoroethyl)pyrimidin-4-amine] | 1.96 |
| CC1(C)CC1Nc1nc(Cl)ncc1Cl (stereo not drawn) [Example V-27, 2,5-Dichloro-N-(2,2-dimethylcyclopropyl)pyrimidin-4-amine] | 3.04 |
| Clc1ncc(Cl)c(N2CCSCC2)n1 [Example V-32, 4-(2,5-Dichloropyrimidin-4-yl)thiomorpholine] | 2.84 |
| Clc1ncc(Cl)c(N2CCCCC2)n1 [Example V-36, 2,5-Dichloro-4-(piperidin-1-yl)pyrimidine] | 3.52 |
| CC1CCN(Cc2cccc([N+](=O)[O-])c2)C1=O (stereo not drawn) [3-Methyl-1-(3-nitrobenzyl)pyrrolidin-2-one] | 1.82 |
| CC1CC1Nc1nc(Cl)ncc1C(F)(F)F (stereo not drawn) [Example V-42, 2-Chloro-N-(2-methylcyclopropyl)-5-(trifluoromethyl)pyrimidin-4-amine] | 3.02 |
| CCC1CC1Nc1nc(Cl)ncc1Cl (stereo not drawn) [Example V-43, 2,5-Dichloro-N-(2-ethylcyclopropyl)pyrimidin-4-amine] | 3.1 |
| Fc1cnc(Cl)nc1NC1CCC1 [Example V-28, 5-Fluoro-2-chloro-N-cyclobutylpyrimidin-4-amine] | 2.17 |
| CCC1CCC(=O)N1c1cccc(N)c1 (stereo not drawn) [1-(3-Aminophenyl)-5-ethylpyrrolidin-2-one] | 0.94 |
| FC(F)(F)CNc1nc(Cl)ncc1Cl [Example V-5, 2,5-Dichloro-N-(2,2,2-trifluoroethyl)pyrimidin-4-amine] | 2.26 |
| CCC(CC(C)C(=O)OC)[N+](=O)[O-] (stereo not drawn) [Methyl 2-methyl-4-nitrohexanoate] | 2.23 |
| CCOC(=O)[C@@H]1CCC(=O)N1c1cccc(N)c1 [Ethyl 1-(3-aminophenyl)-5-oxo-L-prolinate] | 0.84 |

| Compound | chromatographic logP |
| --- | --- |
| COc1cc(N)cc(N2CCCC2=O)c1 [1-(3-Amino-5-methoxyphenyl)pyrrolidin-2-one] | 0.6 |
| Clc1cnc(Nc2ccc(I)cc2)nc1NC1CCC1 [VII-12, 5-Chloro-N^4-cyclobutyl-N^2-(4-iodophenyl)pyrimidine-2,4-diamine] | 3.49 |
| CC(C)[C@@H]1COC(=O)N1c1cccc(N)c1 [(4R)-3-(3-Aminophenyl)-4-isopropyl-1,3-oxazolidin-2-one] | 1.18 |
| O=C1CCCN1c1cc(Nc2ncc(C(F)(F)F)c(Cl)n2)ccc1F [VI-2, 1-(5-{[4-Chloro-5-(trifluoromethyl)pyrimidin-2-yl]amino}-2-fluorophenyl)pyrrolidin-2-one] | 2.84 |
| Clc1ncc(Cl)c(N2CCC2)n1 [Example V-35, 4-(Azetidin-1-yl)-2,5-dichloropyrimidine] | 2.11 |
| Cc1ccc(Nc2ncc(Cl)c(NC3CC3)n2)cc1Br [VII-4, 5-Chloro-N^2-[3-bromo-4-(methyl)phenyl]-N^4-cyclopropylpyrimidine-2,4-diamine] | 2.91 |
| Clc1ncc(Cl)c(NC2COC2)n1 [Example V-29, 2,5-Dichloro-N-(oxetan-3-yl)pyrimidin-4-amine] | 1.31 |
| CC1CC1Nc1nc(Cl)ncc1Cl (stereo not drawn) [Example V-40, 2,5-Dichloro-N-(2-methylcyclopropyl)pyrimidin-4-amine] | 2.53 |
| COCC(C)Nc1nc(Cl)ncc1C(F)(F)F (stereo not drawn) [Example V-3, 2-Chloro-N-(3-methoxypropan-2-yl)-5-trifluoromethylpyrimidin-4-amine] | 2.75 |
| CCC1CC(C)C(=O)N1c1cccc(N)c1 (stereo not drawn) [1-(3-Aminophenyl)-5-ethyl-3-methylpyrrolidin-2-one] | 1.31 |
| CC1CC(Nc2nc(Cl)ncc2Cl)C1 (stereo not drawn) [Example V-39, 2,5-Dichloro-N-(3-methylcyclobutyl)pyrimidin-4-amine] | 3.2 |
| Brc1ccc(Nc2ncc(Br)c(NC3CCC3)n2)cc1 [VII-10, 5-Bromo-N^2-(4-bromophenyl)-N^4-cyclobutylpyrimidine-2,4-diamine] | 3.18 |
| CC1CC(Nc2nc(Cl)ncc2Br)C1 (stereo not drawn) [Example V-6, 5-Bromo-2-chloro-N-(3-methylcyclobutyl)pyrimidin-4-amine] | 3.47 |
| O=C1CCCN1c1cccc(Nc2ncc(C(F)F)c(F)n2)c1 [VI-3, 1-(3-{[5-(Difluoromethyl)-4-fluoropyrimidin-2-yl]amino}phenyl)pyrrolidin-2-one] | 2.28 |
| Nc1cccc(N2C(=O)CCC2C(F)(F)F)c1 (stereo not drawn) [1-(3-Aminophenyl)-5-(trifluoromethyl)pyrrolidin-2-one] | 1.07 |
| CCC1CC(C)C(=O)N1 (stereo not drawn) [5-Ethyl-3-methylpyrrolidin-2-one] | 1.02 |
| O=C1CCCN1c1cc([N+](=O)[O-])ccc1F [1-(2-Fluoro-5-nitrophenyl)pyrrolidin-2-one] | 1.47 |
